For test [1], the system named is cellular cholesterol in ScN2a cells. The class given is cell-based, mouse.
The test system of test [2] is RML scrapie prion infection. In kind it is in vivo, mouse (transgene TG 20). To be noted: TG 20 mice.

With `CCN(CC)CCCC(C)Nc1c2ccc(Cl)cc2nc2ccc(OC)cc12` (stereo not shown) [Quinacrin, reference compound], in test [1], the “cholesterol distribution (filipin staining)” value is “redistribution was revealed to intracellular compartments”.

As to `COc1ccc2nc3cc(Cl)ccc3c(NCCCCN3CCN(CCCN4c5ccccc5CCc5ccccc54)CC3)c2c1` [compound (10), (6-chlor-2-methoxy-acridine-9-yl)-(4-{4-[3-(10,11-dihydro-dibenzo[b,f]azepine-5-yl)-propyl]-piperazine-1-yl}-butyl)-amine], the “time to death of prion disease” value in test [2] (intracerebral RML scrapie, 2 mg per mouse by gavage three times weekly for eight weeks, untreated control 92±4 days) came out at 100 ± 5 days. Further, the “lengthening of the survival time” value in test [2] (versus untreated control, Student's t test p<0.0001) was found to be 10%. In addition, the “cholesterol distribution (filipin staining)” value in test [1] is on record as “redistribution was revealed to intracellular compartments”.
